Where a name gives a salt, the structure may show the parent alone.
How the values were obtained:
[1] = test system: IL-1 beta-induced coronary stenosis; conditions: porcine, long term treatment; cited from earlier work
[2] = test system: rat stroke model; conditions: cited from earlier work
[3] = test system: spontaneously hypertensive rat, renal hypertensive rat and deoxycortisone acetate salt hypertensive rat models; conditions: cited from earlier work
[4] = test system: Dahl salt-sensitive rats; conditions: congestive heart failure; cited from earlier work
[5] = test system: neointimal formation in rats; conditions: balloon injury model; cited from earlier work
[6] = molecular target: T1, ROCKII (1-543) (Homo sapiens, UniProt O75116); test: Luciferin-Luciferase Assay (PKLight ATP detection); format: biochemical; design: ROCKII (1-543) (62,408 Da) was diluted in assay buffer; conditions: 7.5 nM ROCKII (1-543), 750 nM ATP
Description: 1. Luciferin-Luciferase Assay
The activity of ROCKII (1-543) kinase was measured utilizing Cambrex PKLight ATP Detection Reagent, a homogeneous assay technology using luciferin-luciferase to quantify residual ATP. The assay was performed in 384-well low-volume, white, non-binding surface microtiter plates (Corning). The assay buffer was 25 mM HEPES, pH 7.5, 10 mM MgCl2, 50 mM KCl, 0.2% BSA, 0.01% CHAPS, 100 μM Na3VO4 and 0.5 mM DTT. Test compounds, dissolved in neat DMSO at 500 μg/mL, were serially diluted for dose response for a final starting concentration of 3 μg/mL in 1% DMSO of assay buffer. ROCKII (1-543) (62,408 Da) was diluted in assay buffer to a final concentration of 7.5 nM in a total volume of 15 μL. Positive controls were reaction mixtures containing no test compound; negative controls (blanks) were reaction mixtures containing no kinase. After 15 minutes of pre-incubation of the test compounds with the kinase, a mixture of ATP and peptide substrate (AKRRRLSSLRA) in assay buffer was added to each well for a final concentration of 750 nM ATP and 500 nM peptide, respectively. After 90 minutes of incubation of the kinase reaction at 28° C. temperature, 10 μL of PKLight ATP Detection Reagent (warmed to room temperature previously) was added to each well. The assay plate was incubated at room temperature for additional 15 minutes and then read on an Analyst in luminescence mode. Dose-response experiments for each of the test compounds were conducted in quadruplet. IC50 values of test compounds represent 50% response of the positive control from the dose-response curve.
Target sequence in this assay (O75116 1-543): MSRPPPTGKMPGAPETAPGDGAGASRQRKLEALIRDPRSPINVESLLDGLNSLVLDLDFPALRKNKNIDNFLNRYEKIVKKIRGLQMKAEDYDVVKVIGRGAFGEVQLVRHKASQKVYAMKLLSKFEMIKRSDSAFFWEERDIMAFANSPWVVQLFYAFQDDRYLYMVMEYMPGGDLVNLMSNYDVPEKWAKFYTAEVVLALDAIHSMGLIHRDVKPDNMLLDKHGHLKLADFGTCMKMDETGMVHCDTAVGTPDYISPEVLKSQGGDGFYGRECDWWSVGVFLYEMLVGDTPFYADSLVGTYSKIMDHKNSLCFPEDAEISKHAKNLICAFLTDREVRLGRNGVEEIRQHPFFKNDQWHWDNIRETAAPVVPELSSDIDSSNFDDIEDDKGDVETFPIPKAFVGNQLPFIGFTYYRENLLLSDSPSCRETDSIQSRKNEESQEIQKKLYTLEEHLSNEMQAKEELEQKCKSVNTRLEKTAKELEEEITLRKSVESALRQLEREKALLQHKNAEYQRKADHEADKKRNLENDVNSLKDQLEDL

[7] = molecular target: T1, ROCKII (1-543); test: IMAP Assay (fluorescence polarization, FAM S6 peptide); format: biochemical; design: 3 nM ROCKII (1-543) diluted in kinase reaction buffer; conditions: IMAP FP, 1 nM ROCKII (1-543), 100 μM ATP; read-out: Assay 2 IC50
Description: This assay is performed using FAM S6 substrate peptide (Catalogue #R7184) and IMAP FP Screening Express Kit detection reagents from Molecular Devices (Sunnyvale, Calif.) in IMAP kinase reaction buffer (Tris-HCl, pH 7.2, 10 mM MgCl2, 0.05% NaN3, 0.1% phosphate-free BSA) containing 1 mM DTT. Test compounds dissolved in neat DMSO at 0.3 mg/mL are serially diluted 1 to 3 for concentration response in 100% DMSO. The DMSO serial dilutions are further diluted 33.33-fold in kinase reaction buffer, and 10 μL of this buffer dilution is transferred to Corning black 96-well half area NBS plates for a final top concentration of 3 μg/mL in 1% DMSO. 10 μL aliquot of 3 nM ROCKII (1-543) diluted in kinase reaction buffer is added to each assay well for a final concentration of 1 nM kinase. 10 μL of a mixture of 600 nM FAM S6 peptide and 300 μM ATP diluted in kinase reaction buffer is added to each well for a final concentration of 200 nM peptide and 100 μM ATP. The kinase reaction mixture is incubated for 60 minutes at room temperature. Positive controls are reaction mixtures containing no test compound and negative controls (blanks) are reaction mixtures containing no kinase. The kinase reaction is stopped by addition of 60 μL IMAP progressive binding reagent (Catalog #R7284) diluted 400-fold in 1× Binding buffer A. After 30 min of incubation at room temperature, the plates are read for fluorescence polarization on Analyst Plate Reader using Ex 485 nm, Em 530 nm, and FL 505 dichroic mirror. The mP signals are converted to percent of control (POC) values using the formula: POC=100*(Signal−BCTRL)÷(PCTRL−BCTRL)
Where Signal is the test well signal, BCTRL is the average of background (negative control) well signals on the plate and PCTRL is the average of positive control well signals on the plate. For the concentration-responsive compounds, POC as a function of test compound concentration is fitted to a 4-parameter logistic equation of the form: Y=A+(B−A)/[1+(x/C)D]
Where A, B, C, and D are fitted parameters (parameter B is fixed at zero POC), and x and y are the independent and dependent variables, respectively. The IC50 is determined as the inflection point parameter, C.
Target sequence in this assay (O75116 1-543, species assumed): as the sequence (O75116 1-543) above

Row | Structure (SMILES) | IC50 [6] [nM] | IC50 [7] [nM] | also measured
1 | O=S(=O)(c1cccc2cnccc12)N1CCCNCC1 [fasudil] | – | – | coronary constrictive remodeling [1]: promote a regression of coronary constrictive remodeling; coronary stenosis [1]: progressively reduce coronary stenosis; infarct size and neurologic deficit [2]: reduce both the infarct size and neurologic deficit
2 | C[C@@H](N)[C@H]1CC[C@H](C(=O)Nc2ccncc2)CC1 [Compound Y-27632, Y-27632] | – | – | effect on blood pressure in control rats ([3]; control rats): only a minor effect; blood pressure in three rat models of hypertension ([3]; spontaneously hypertensive, renal hypertensive, deoxycortisone acetate salt hypertensive rats): significantly decrease blood pressure; ventricular hypertrophy and function [4]: improve ventricular hypertrophy and function; neointimal formation [5]: inhibited neointimal formation
3 | N#Cc1ccc(-c2cnn(Cc3cccc(C(=O)Nc4nc5c(s4)CC(N4CCC(F)(F)CC4)CC5)c3)c2)cc1 (stereo not drawn) [Compound 15, 3-[4-(4-Cyano-phenyl)-pyrazol-1-ylmethyl]-N-[6-(4,4-difluoro-piperidin-1-yl)-4,5,6,7-tetrahydro-benzothiazol-2-yl]-benzamide trifluoroacetate] | 4.6 | 2.4 | –
4 | N#Cc1ccc(-c2cn(Cc3cccc(C(=O)Nc4nc5c(s4)CC(N4CCC(F)CC4)CC5)c3)nn2)cc1 (stereo not drawn) [Compound 42, 3-[4-(4-Cyano-phenyl)-1,2,3-triazol-1-ylmethyl]-N-[6-(4-fluoro-piperidin-1-yl)-4,5,6,7-tetrahydro-benzothiazol-2-yl]-benzamide] | 3.4 | 1.1 | –
5 | CN1CCc2nc(NC(=O)c3cccc(Cn4cc(-c5ccc(C#N)cc5)nn4)c3)sc2C1 [Compound 2, 3-[4-(4-Cyano-phenyl)-[1,2,3]triazol-1-ylmethyl]-N-(5-methyl-4,5,6,7-tetrahydro-thiazolo[5,4-c]pyridin-2-yl)-benzamide] | 2.8 | 11 | –
6 | COCCN[C@H]1CCc2nc(NC(=O)c3cccc(Cn4cc(-c5ccc(C#N)cc5)cn4)c3)sc2C1 [Compound 45, 3-[4-(4-Cyano-phenyl)-pyrazol-1-ylmethyl]-N—[(S)-6-(2-methoxy-ethylamino)-4,5,6,7-tetrahydro-benzothiazol-2-yl]-benzamide] | 2.1 | 0.35 | –
7 | COCCN(C)C1CCc2nc(NC(=O)c3cccc(Cn4cc(-c5ccc(C#N)cc5)nn4)c3)sc2C1 (stereo not drawn) [Compound 24, 3-[4-(4-Cyano-phenyl)-[1,2,3]triazol-1-ylmethyl]-N-{6-[(2-methoxy-ethyl)-methyl-amino]-4,5,6,7-tetrahydro-benzothiazol-2-yl}-benzamide] | 3.1 | 2.6 | –
8 | N#Cc1ccc(-c2cnn(Cc3cccc(C(=O)Nc4nc5c(s4)CC(N4CCC(F)CC4)CC5)c3)c2)cc1 (stereo not drawn) [Compound 18, 3-[4-(4-Cyano-phenyl)-pyrazol-1-ylmethyl]-N-[6-(4-fluoro-piperidin-1-yl)-4,5,6,7-tetrahydro-benzothiazol-2-yl]-benzamide trifluoroacetate] | 2.2 | 0.66 | –
9 | COCCN(CCOC)[C@H]1CCc2nc(NC(=O)c3cccc(Cn4cc(-c5ccc(C#N)cc5)nn4)c3)sc2C1 [Compound 55, N-{(S)-6-[Bis-(2-methoxy-ethyl)-amino]-4,5,6,7-tetrahydro-benzothiazol-2-yl}-3-[4-(4-cyano-phenyl)-[1,2,3]triazol-1-ylmethyl]-benzamide] | 2.3 | 6.5 | –
10 | N#Cc1ccc(-c2cn(Cc3cccc(C(=O)Nc4nc5c(s4)C[C@@H](N4CCOCC4)CC5)c3)cn2)cc1 [Compound 10, 3-[4-(4-Cyano-phenyl)-imidazol-1-ylmethyl]-N—((S)-6-morpholin-4-yl-4,5,6,7-tetrahydro-benzothiazol-2-yl)-benzamide] | 2.7 | 0.87 | –
11 | C[C@@H]1CN(C2CCc3nc(NC(=O)c4cccc(Cn5cc(-c6ccc(C#N)cc6)nn5)c4)sc3C2)C[C@H](C)O1 (stereo partly drawn) [Compound 27, 3-[4-(4-Cyano-phenyl)-[1,2,3]triazol-1-ylmethyl]-N-[6-((2S,6R)-2,6-dimethyl-morpholin-4-yl)-4,5,6,7-tetrahydro-benzothiazol-2-yl]-benzamide] | 3.1 | 3.9 | –
12 | N#Cc1ccc(-c2nnc(Cc3cccc(C(=O)Nc4nc5c(s4)C[C@@H](N4CCOCC4)CC5)c3)s2)cc1 [Compound 56, 3-[5-(4-Cyano-phenyl)-1,3,4-thiadiazol-2-ylmethyl]-N—((S)-6-morpholin-4-yl-4,5,6,7-tetrahydro-benzothiazol-2-yl)-benzamide] | 2.5 | 4 | –

Reference: patent US9000154B2, “Rho kinase inhibitors” (Boehringer Ingelheim International GmbH, priority 2010, dated 2015)
